Measured values reported in PubChem BioAssay (NCI).
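All cell lines were grown in 96-well plates and treated with compound for 48 hours. Here, GI50 denotes the concentration required for 50% inhibition of growth. TGI marks complete inhibition of growth.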

Assays:
SN12K1 renal = experiment: NCI tumour cell line growth inhibition, 48 h
P388/ADR leukemia = experiment: NCI tumour cell line growth inhibition, 48 h

SMILES	TGI (SN12K1 renal)	GI50 (P388/ADR leukemia)	TGI (P388/ADR leukemia)	GI50 (SN12K1 renal)
COc1cccc2c1C(=N)c1c(O)c3c(c(O)c1C2=O)C[C@@](O)(C(C)=O)C[C@@H]3OC1CC(N)C(O)C(C)O1 (some centres undefined)	3.05 µM	13.6 µM	51.7 µM	
O=C(NC(c1ccccc1)C(O)C(=O)OCc1ccc2c(c1)C(=O)c1ccccc1C2=O)c1ccccc1 (centres undefined)	3.27 µM		> 100 µM	
C[CH2][Ge]1([CH2]C)[CH2]CC2(CCN(CCCN(C)C)C2)C[CH2]1	4.38 µM	1.02 µM	1.87 µM	1.97 µM
